Results on one compound are retold here after US8063039B2, “3-aminopyrrolidone derivatives” (Newron Pharmaceuticals S.p.A., priority 2003, dated 2011).

Counter-ions that a name gives are not always drawn.

`O=C1NCC[C@@H]1NCc1ccc(OCc2cccc(F)c2)cc1` (as salt: sulfonic acid salt) [Example 1, (S)-3-[4-(3-Fluorobenzyloxy)-benzylamino]-pyrrolidin-2-one] displayed a melting point of 140.5 to 143.5 °C.
